# Measurements: US10570155B2, “Imidazooxazole derivative having antitumor effect, and pharmaceutical composition including same” (KOREA INSTITUTE OF SCIENCE AND TECHNOLOGY, priority 2016, dated 2020)
# Columns and labels:
# [1] = tested on: A375P cell line xenograft; assay: Tumor-inhibitory effects in melanoma mouse xenograft model; format: in vivo, nude mice; design: Tumor size: unit not given here
# Experimental: In this experiment, A375P cell line which is a human-derived malignant melanoma cell line was subcutaneously administered to nude mice to prepare xenograft models, and the test material (compound 2II) was administered to the xenograft models to evaluate anti-cancer effects (GI: an excipient control group, G2: a group administered with 20 mg/kg/day of the test material, and G3: a group administered with 50 mg/kg/day of the test material).
# [2] = tested on: SK-MEL-28; assay: NCI cancer cell line panel screening (SRB), melanoma cell line SK-MEL-28; format: cell-based, human; details: Homo sapiens, read-out: IC50 against melanoma cell line in vitro
# Experimental: According to the standard protocol (http://dtp.nci.nih.gov/dtpstandard/dwindex/index.isp) of the US National Cancer Institute (NCI) (www.dtp.nci.nih.gov), screening of a cancer cell line panel was performed. […] For a general screening experiment, cells were inoculated in 96-well microtiter plates in 100 μl at a plating density ranging from 5000 cells/well to 40,000 cells/well depending on the doubling time of individual cell lines. After cell inoculation, the microtiter plates were incubated at 37° C., 5% CO2, 95% air, and 100% relative humidity for 24 hours prior to addition of test compounds. 24 hours later, two plates of each cell line were fixed in situ with trichloroacetic acid (TCA) to measure the cell population for each cell line at the time of test compound addition (Tz). Test compounds were solubilized in dimethyl sulfoxide at 400-fold the intended final maximum test concentration, and stored frozen prior to use. At the time of compound addition, an aliquot of frozen concentrate was thawed and diluted to twice the intended final maximum test concentration with a complete medium containing 50 μg/ml of gentamicin. Additional four concentration of 10-fold or ½ log serial dilutions were made to provide a total of five compound concentrations plus control. Aliquots of 100 μl of these different compound dilutions were added to appropriate microtiter wells already containing 100 μl of medium, resulting in the required final compound concentrations.
# Following compound addition, the plates were incubated for additional 48 hours at 37° C., 5% CO2, 95% air, and 100% relative humidity. For adherent cells, the assay was terminated by the addition of cold TCA. Cells were fixed in situ by the gentle addition of 50 μl of cold 50% (w/v) TCA (final concentration, 10% TAC) and incubated at 4° C. for 60 minutes. The supernatant was discarded, and the plates were washed five times with tap water and air-dried. A sulforhodamine B (SRB) solution (100 μl) at 0.4% (w/v) in 1% acetic acid was added to each well, and plates were incubated at room temperature for 10 minutes. After staining, unbound dye was removed by washing five times with 1% acetic acid and the plates were air-dried. […] For suspension cells, the methodology was the same except that the assay was terminated by fixing settled cells at the bottom of the wells by gently adding 50 μl of 80% TCA (final concentration, 16% TCA). Using the seven absorbance measurements [time zero (Tz), control growth (C), and test growth rate in the presence of compound at the five concentration levels (Ti)], the growth percentage was calculated at each of the compound concentration levels. Growth inhibition percentage was calculated as follows: [(Ti−Tz)/(C−Tz)]×100 for concentrations for which Ti>/=Tz [(Ti−Tz)/Tz]×100 for concentrations for which Ti<Tz.
# [3] = tested on: M14; assay: NCI cancer cell line panel screening (SRB), melanoma cell line M14; format: cell-based; details: Homo sapiens, read-out: IC50 against melanoma cell line in vitro
# Experimental: (§1) According to the standard protocol (http://dtp.nci.nih.gov/dtpstandard/dwindex/index.isp) of the US National Cancer Institute (NCI) (www.dtp.nci.nih.gov), screening of a cancer cell line panel was performed. Briefly, human cell lines were allowed to grow in an RPMI 1640 medium containing 5% FBS and 2 mM L-glutamine. For a general screening experiment, cells were inoculated in 96-well microtiter plates in 100 μl at a plating density ranging from 5000 cells/well to 40,000 cells/well depending on the doubling time of individual cell lines. After cell inoculation, the microtiter plates were incubated at 37° C., 5% CO2, 95% air, and 100% relative humidity for 24 hours prior to addition of test compounds. 24 hours later, two plates of each cell line were fixed in situ with trichloroacetic acid (TCA) to measure the cell population for each cell line at the time of test compound addition (Tz). Test compounds were solubilized in dimethyl sulfoxide at 400-fold the intended final maximum test concentration, and stored frozen prior to use. At the time of compound addition, an aliquot of frozen concentrate was thawed and diluted to twice the intended final maximum test concentration with a complete medium containing 50 μg/ml of gentamicin. Additional four concentration of 10-fold or ½ log serial dilutions were made to provide a total of five compound concentrations plus control. Aliquots of 100 μl of these different compound dilutions were added to appropriate microtiter wells already containing 100 μl of medium, resulting in the required final compound concentrations.
# (§2) Following compound addition, the plates were incubated for additional 48 hours at 37° C., 5% CO2, 95% air, and 100% relative humidity. For adherent cells, the assay was terminated by the addition of cold TCA. Cells were fixed in situ by the gentle addition of 50 μl of cold 50% (w/v) TCA (final concentration, 10% TAC) and incubated at 4° C. for 60 minutes. The supernatant was discarded, and the plates were washed five times with tap water and air-dried. A sulforhodamine B (SRB) solution (100 μl) at 0.4% (w/v) in 1% acetic acid was added to each well, and plates were incubated at room temperature for 10 minutes. After staining, unbound dye was removed by washing five times with 1% acetic acid and the plates were air-dried. Bound stain was subsequently solubilized with 10 mM Trizma base, and the absorbance was read on an automated plate reader at a wavelength of 515 nm. For suspension cells, the methodology was the same except that the assay was terminated by fixing settled cells at the bottom of the wells by gently adding 50 μl of 80% TCA (final concentration, 16% TCA). Using the seven absorbance measurements [time zero (Tz), control growth (C), and test growth rate in the presence of compound at the five concentration levels (Ti)], the growth percentage was calculated at each of the compound concentration levels. Growth inhibition percentage was calculated as follows: [(Ti−Tz)/(C−Tz)]×100 for concentrations for which Ti>/=Tz [(Ti−Tz)/Tz]×100 for concentrations for which Ti<Tz.
# [4] = tested on: A375; assay: NCI cancer cell line panel screening (SRB), melanoma cell line A375; format: cell-based; details: Homo sapiens, A-375, read-out: IC50 against melanoma cell line in vitro
# Experimental: as §1, §2
# [5] = tested on: MDA-MB-435; assay: NCI cancer cell line panel screening (SRB), melanoma cell line MDA-MB-435; format: cell-based; details: Homo sapiens, read-out: IC50 against melanoma cell line in vitro
# Experimental: as §1, §2
# [6] = tested on: UACC-62; assay: NCI cancer cell line panel screening (SRB), melanoma cell line UACC-62; format: cell-based; details: Homo sapiens, read-out: IC50 against melanoma cell line in vitro
# Experimental: as §1, §2
# [7] = 20 and 50 mg/kg/day, intravenous, twice per week for 3 weeks
structure (smiles),measurement,setting,value
"CCN1CCN(CCNc2nccc(-c3c(-c4cccc(O)c4)nc4occn34)n2)S1(=O)=O [2II, 2-Ethyl-5-(2-((4-(6-(3-hydroxylphenyl)imidazo[2,1-b]oxazol-5-yl)pyrimidin-2-yl)amino)ethyl)-1,2,5-thiadiazolidine 1,1-dioxide]",General symptoms and deaths,[1]; [7],no deaths or no abnormalities in general symptoms were observed
same,Increase of the tumor size,[1]; [7],inhibited in a dose-dependent manner
same,"Tumor size, difference between experimental groups","[1]; G1, G2 (20 mg/kg/day), G3 (50 mg/kg/day)",no significant difference between all experimental groups
same,Tumor size,"[1]; G2, 20 mg/kg/day, day 0",145.08 ± 20.85
same,Tumor size,"[1]; G2, 20 mg/kg/day, day 4",271.88 ± 60.05
same,Tumor size,"[1]; G2, 20 mg/kg/day, day 7",556.42 ± 161.21
same,Tumor size,"[1]; G2, 20 mg/kg/day, day 11",978.91 ± 258.24
same,Tumor size,"[1]; G2, 20 mg/kg/day, day 14",1711.5 ± 631.79
same,Tumor size,"[1]; G2, 20 mg/kg/day, day 18",2438.5 ± 962.99
same,Tumor size,"[1]; G2, 20 mg/kg/day, day 21",3200.6 ± 944.99
same,Body weight gain compared with excipient control group,"[1]; G3, 50 mg/kg/day",significantly low
same,Body weight compared with control group (G1),"[1]; G3, 50 mg/kg/day, at 14 days and 21 days after administration",significantly low
same,Tumor size,"[1]; G3, 50 mg/kg/day, day 0",149.36 ± 20.91
same,Tumor size,"[1]; G3, 50 mg/kg/day, day 4",276.08 ± 86.17
same,Tumor size,"[1]; G3, 50 mg/kg/day, day 7",442.88 ± 73.08
same,Tumor size,"[1]; G3, 50 mg/kg/day, day 11",754.16 ± 211.86
same,Tumor size,"[1]; G3, 50 mg/kg/day, day 14",1174.7 ± 411.22
same,Tumor size,"[1]; G3, 50 mg/kg/day, day 18",1543.9 ± 411.21
same,Tumor size,"[1]; G3, 50 mg/kg/day, day 21",2063.1 ± 657.93
same,IC50,[2],130 nM
same,IC50,[3],140 nM
same,IC50,[4],190 nM
same,IC50,[5],370 nM
same,IC50,[6],70 nM
